Assays:
[1] = system: human neutrophils; test: NETosis of PMA-activated primary human neutrophils (ATAC-see / ATAC-seq); format: cell-based
Procedure: Human neutrophils were isolated from healthy donor's blood following as described under a Stanford University IRB-approved protocol^23. In brief, 7 ml of heparinized blood was layered on 7 ml Histopaque 1119 (11191-100ML, Sigma Aldrich) in a 15 ml Falcon tube, and the mixture was spun 20 min at 800× g at room temperature. The interphase (lymphocytes and monocytes) was discarded and the granulocyte-rich layer of Histopaque 1119 (diffuse, red phase above RBC pellet) was collected in a new tube. 5 ml of cells were washed with 10 ml of medium (HBSS+), and spun 10 min at 200× g at room temperature. The cells were resuspended in 3 ml DPBS with 0.5% human serum albumin (101-15-50, Lee BioSolutions), and the cell suspension was layered on 10 ml of a discontinuous Percoll gradient (85% to 65% Percoll) and spun 20 min at 800×g at room temperature. The interphase between 70% and 75% Percoll layers were collected in a new 15 ml tube. The tube was added with DPBS with 0.5% human serum albumin up to 15 ml and spun for 10 min at 200× g at room temperature. The cell pellet was resuspended in RPMI-HEPES (10 mM) at 1.5×10^6 cells per ml for neutrophil activation.
Human neutrophils were stimulated by Phorbol myristate acetate (PMA) as described^23. Briefly, the purified neutrophils were suspended in 3 ml RPMI 1640 with final concentration of 1.5×10^6 per ml in loosen cap 15 ml falcon tube, and incubated in cell culture CO2 incubator (5% CO2, 37° C.) with final concentration of 30 nM PMA for 1 h, 3 h, and 5 h respectively. After 2 h of simulation, protease inhibitor cocktail was added at a 1:200 dilution to both control and simulated tubes. At the respective time points, neutrophils were fixed with 1% formaldehyde for 10 min at room temperature, and fixed neutrophil cells spun down on the glass slide with cytospin 1000 rpm 5 min at room temperature for ATAC-see or immuno-staining.
The PAD4 inhibition was performed as previously described^25.
80% confluent Human HT1080 cells (30-50,000 cells) grown in 8 well chamber slides were fixed with 1% formaldehyde (Sigma, USA) for 10 min and quenched with 0.125 M glycine for 5 min at room temperature. After fixation, slides were put in PBS at 4° C. […] The 50 μl transposase reaction solution was added onto the slide, and the cells on slide were incubated at 37° C. for 30 min. For the imaging and sequencing, slides were mounted using Vectorshield and images were taken with a Zeiss LSM 700. After imaging, the coverslip was removed and cells were lysed with 50 μl of 50 mM Tris-Cl, 1 mM EDTA, 1% SDS, 0.2 M NaCl 5 min on slide at room temperature. The cell lysis was carefully transferred to 1.5 ml eppendorf tube. The glass slide was washed with 50 μl of the same buffer another 3 times and washing solutions were transferred to the same tube carefully. […]

[2] = target: Tn5 (Escherichia coli, UniProt Q46731, E54K/L372P); conditions: 50 mM EDTA, HT1080 cells
Procedure: HT1080 cells and HeLa cells were grown on secureSlip cell culture system (0515073, GRACE BIO-LABS) until 80-90% confluent and fixed with 1% formaldehyde (Sigma-Aldrich) for 10 min at room temperature. GM12878 cells were fixed with 1% formaldehyde (Sigma) 10 min at room temperature and centrifuged on the glass slide with Cytospin, 1000 rpm for 5 min, 30-50,000 cells per slide.
ATAC-see: After fixation, the cells (either growing on slide or centrifuged on glass slide with cytospin) were permeabilized with lysis buffer (10 mM Tris-Cl, pH 7.4, 10 mM NaCl, 3 mM MgCl2, 0.01% Igepal CA-630) for 10 min at room temperature. After the permeabilization, the slides were rinsed in PBS twice, and put in humid chamber box at 37° C. The transposase mixture solution (25 μl 2× TD buffer, final concentration of 100 nM Tn5-ATTO-59ON, adding dH2O up to 50 μl) was added on the slide and incubated for 30 min at 37° C. […] After washing, slides were mounted using Vectashield with DAPI (H-1200, Vector labs) for imaging with Leica SP8 or Zeiss 700 or for additional co-staining with Lamin B1 or mitochondria (see the materials and methods above).

## NC(=O)[C@H](CCCN=C(N)CCl)NC(=O)c1ccccc1 [Cl-amidine]
[1]; 200 μM Cl-amidine 30 min before PMA stimulation
  NETosis: inhibited
[1]; PAD4i-treated, after 5 hrs of neutrophil activation
  release of free DNA from mononucleosomes: fail to release free DNA from mononucleosomes

## O=C(O)CN(CCN(CC(=O)O)CC(=O)O)CC(=O)O [EDTA]
[2]
  ATAC-see signal, % of control: 2.69%±0.04

## CCCCCCCCCCCCCC(=O)O[C@@H]1[C@@H](C)[C@@]2(O)[C@@H](C=C(CO)C[C@]3(O)C(=O)C(C)=C[C@@H]23)[C@@H]2C(C)(C)[C@]12OC(C)=O [PMA, Phorbol myristate acetate]
[1]; 30 nM PMA, after 3 hrs of stimulation
  neutrophils that have released their chromatin into the extracellular space: 49.7%
[1]; 30 nM PMA, after 5 hrs of stimulation
  neutrophils that have released NETs: 59.7%

From patent US11680253B2, “Transposase-mediated imaging of the accessible genome” (The Board of Trustees of the Leland Stanford Junior …, priority 2016, dated 2023)
